Assay results taken from paper PMC7866009, “Evaluation of Nanotargeted ^111In-Cyclic RGDfK-Liposome in a Human Melanoma Xenotransplantation Model” (International Journal of Molecular Sciences, 2021).
Non-standard residues stand in square brackets, D forms with d.

Legend:
[1] = tested on: integrin αVβ3; details: cited from earlier work
Excerpt: The arginin-glycine-aspatic acid (RGD) sequence is the cell attachment site of a large number of adhesive extracellular matrix, blood, and cell surface proteins, and nearly half of the over 20 known integrins recognize this sequence in their adhesion protein ligands. The integrin-binding selective activity to only one or a few of the RGD-directed integrins can be designed by cyclizing peptides with selected sequences around the RGD.

[2] = tested on: αVβ3 integrin-mediated adhesion of A375.S2 cells; assay: CytoSelect cell adhesion assay of A375.S2 cells on extracellular matrix proteins; type: cell-based, human; details: 100 nM; cells adhere to coated plate at 37 °C (1 h in legend, 90 min in method); crystal violet OD 560 nm; five experiments
Protocol: Next, we tested the effect of the cyclic RGDfK-liposome on the αVβ3 integrin -mediated cellular adhesion using human malignant melanoma A375.S2 cells on recombinant extracellular matrix proteins.
Figure 1 Evaluating the effect of the cyclic RGDfK-liposome on αVβ3 integrin-mediated cell adhesion. […] A375.S2 cells was pretreated with 100 nM cRGDfV, cRGDfK, cRGDfK-PEG2000-DSPE or the cRGDfK-liposome and allowed to adhere to a coating of fibronectin, collagenI or collagen IV for 1 h at 37 °C before washing and detection of cell adhesion (B) or followed by staining with FITC-labeled mouse anti-human CD51/CD61 monoclonal antibody (C). […] These experiments were performed for five times.
Adhesion assay were performed with CytoSelect TM Cell Adhesion Assay Kit. Principle, A375.S2 cells (1 × 10^6/well) in working solution (serum-free MEM medium, 1mM Mn^2+, and 0.5% bovine serum albumin) were allowed to adhere to extracellular matrix proteins-coated plate for 90 min at 37 °C. Cells were analyzed for binding in the presence or absence of test subjects. Non-adherent cells were removed by a flick wash. The adherent cells were stained with crystal violet and examined the optical density at λmax 560 nm.

[3] = target: αVβ3 integrin (human (endogenous in A375.S2)) (UniProt P06756)
[4] = target: αVβ3 integrin (human (endogenous in A375.S2)) (UniProt P06756); remark: listed apart in the source

Chain of UniProt P06756 (P06756 31-1048, chain 1 of 2): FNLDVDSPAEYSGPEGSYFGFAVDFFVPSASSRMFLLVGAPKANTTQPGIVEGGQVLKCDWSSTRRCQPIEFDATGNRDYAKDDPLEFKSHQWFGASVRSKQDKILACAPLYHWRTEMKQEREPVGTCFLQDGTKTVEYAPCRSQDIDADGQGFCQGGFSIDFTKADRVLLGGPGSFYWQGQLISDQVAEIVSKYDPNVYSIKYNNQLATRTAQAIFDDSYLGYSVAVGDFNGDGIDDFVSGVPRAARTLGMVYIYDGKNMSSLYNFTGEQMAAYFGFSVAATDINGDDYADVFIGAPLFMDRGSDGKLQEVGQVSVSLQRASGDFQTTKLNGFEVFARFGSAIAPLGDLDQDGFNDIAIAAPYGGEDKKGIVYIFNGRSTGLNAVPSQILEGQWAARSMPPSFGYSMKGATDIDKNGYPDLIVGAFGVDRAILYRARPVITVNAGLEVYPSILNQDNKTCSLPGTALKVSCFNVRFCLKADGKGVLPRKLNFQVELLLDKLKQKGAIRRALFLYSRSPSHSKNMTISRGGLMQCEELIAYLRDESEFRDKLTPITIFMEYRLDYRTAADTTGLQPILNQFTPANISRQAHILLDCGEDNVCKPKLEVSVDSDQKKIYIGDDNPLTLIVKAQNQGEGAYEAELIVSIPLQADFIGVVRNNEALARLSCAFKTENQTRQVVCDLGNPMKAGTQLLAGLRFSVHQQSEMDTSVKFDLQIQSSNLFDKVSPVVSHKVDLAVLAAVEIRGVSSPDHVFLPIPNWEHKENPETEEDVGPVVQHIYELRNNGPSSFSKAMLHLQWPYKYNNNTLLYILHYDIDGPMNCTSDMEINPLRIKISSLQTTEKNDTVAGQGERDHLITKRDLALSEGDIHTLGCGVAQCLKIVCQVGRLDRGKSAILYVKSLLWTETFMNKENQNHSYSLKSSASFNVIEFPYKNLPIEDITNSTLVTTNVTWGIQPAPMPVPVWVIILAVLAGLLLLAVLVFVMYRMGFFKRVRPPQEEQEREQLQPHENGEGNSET
Chain of UniProt P06756 (P05106 27-788, chain 2 of 2, further chain): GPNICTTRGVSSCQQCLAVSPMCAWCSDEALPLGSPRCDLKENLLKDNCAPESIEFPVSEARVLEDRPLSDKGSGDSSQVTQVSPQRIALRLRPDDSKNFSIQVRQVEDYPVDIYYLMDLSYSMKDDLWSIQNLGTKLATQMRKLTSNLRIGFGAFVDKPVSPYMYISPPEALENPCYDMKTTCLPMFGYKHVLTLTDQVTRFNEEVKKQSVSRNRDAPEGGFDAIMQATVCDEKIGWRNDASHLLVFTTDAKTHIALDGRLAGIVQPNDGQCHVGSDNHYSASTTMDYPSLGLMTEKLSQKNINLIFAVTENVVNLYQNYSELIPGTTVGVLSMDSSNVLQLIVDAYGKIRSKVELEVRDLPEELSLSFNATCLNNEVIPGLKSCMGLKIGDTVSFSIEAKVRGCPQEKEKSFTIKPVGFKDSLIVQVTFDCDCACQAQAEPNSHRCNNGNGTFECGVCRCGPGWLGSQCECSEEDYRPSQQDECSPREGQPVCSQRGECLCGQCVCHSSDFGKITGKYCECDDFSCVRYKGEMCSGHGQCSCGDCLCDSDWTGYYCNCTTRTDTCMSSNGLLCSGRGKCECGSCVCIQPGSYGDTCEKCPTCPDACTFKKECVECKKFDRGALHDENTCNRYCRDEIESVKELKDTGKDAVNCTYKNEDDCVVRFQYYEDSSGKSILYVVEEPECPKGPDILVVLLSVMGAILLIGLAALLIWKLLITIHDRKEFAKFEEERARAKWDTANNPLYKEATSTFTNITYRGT

Molecule | binding affinity for integrin αVβ3 [1] | A375.S2 cell adhesion to fibronectin, collagen I, and collagen IV [2] | tumor-to-blood ratio of the 111In-labeled cyclic RGDfK-liposome, mice without a metastatic growth of human melanoma cells (111In-liposome without peptide: 1) [3] | uptake of the 111In-labeled cyclic RGDfK-liposome in tumor, mice without a metastatic growth of human melanoma cells (111In-liposome without peptide: 2.2) [3] [%ID/g] | tumor-to-blood ratio of the 111In-labeled cyclic RGDfK-liposome, mice with a metastatic growth of human melanoma cells (111In-liposome without peptide: 1.3) [4] | uptake of the 111In-labeled cyclic RGDfK-liposome in tumor (jejunal lymph node), mice with a metastatic growth of human melanoma cells (111In-liposome without peptide: 2.9) [4] [%ID/g]
CC(C)[C@@H]1NC(=O)[C@@H](Cc2ccccc2)NC(=O)[C@H](CC(=O)O)NC(=O)CNC(=O)[C@H](CCCNC(=N)N)NC1=O [cRGDfV] | high binding affinity | markedly reduced | – | – | – | –
N=C(N)NCCC[C@@H]1NC(=O)[C@H](CCCCN)NC(=O)[C@@H](Cc2ccccc2)NC(=O)[C@H](CC(=O)O)NC(=O)CNC1=O [cRGDfK] | high binding affinity | markedly reduced | – | – | – | –
cyclo(RGD[dF]K) (also: conjugated via NHS-PEG2000-DSPE, inserted into PEGylated liposome) [cyclic RGDfK-liposome] | – | – | 4.8 | 5.3 | 5.6 | 6.2
